Results on eight compounds are retold here after ChEMBL document CHEMBL4706602, “β-lactam antibiotics: An overview from a medicinal chemistry perspective” (Eur J Med Chem, 2020).

The bioavailability is dose-corrected exposure relative to a reference, in per cent.

Data set [1] can be described thus: Half life in human at 600 mg, iv administered every 12 hrs as 1 hr infusion. In kind it is ADME, organism-based. To be noted: in vivo.
The nature of data set [2]: Protein binding in plasma (unknown origin). In kind it is ADME, cell-free. To be noted: read-out: PPB (converted).
Data set [3] is described as follows: Oral bioavailability in human. As to conditions: in vivo. The format is ADME, organism-based.
Data set [4] is described as follows: Bioavailability in human at 500 mg, IM. The format is ADME, organism-based. As to conditions: in vivo.
Data set [5] in a line: Drug excretion in human urine assessed as unaltered drug. The format is ADME. To be noted: read-out: Drug excretion.
Data set [6] can be described thus: Half life of compound in human. The format is ADME.
The nature of data set [7]: Elimination half life in human at 1 g, iv infusion for 30 mins. In kind it is ADME, organism-based. To be noted: in vivo, read-out: beta t1/2 (converted).
Data set [8] is described as follows: Chemical stability of compound assessed as compound degradation at 37 degreeC measured for 24 hrs. In kind it is physicochemical. As to conditions: read-out: Drug degradation.
Data set [9] can be described thus: Half life of compound. The format is physicochemical.

In data set [1], `CCO/N=C(\C(=O)N[C@@H]1C(=O)N2C(C(=O)O)=C(Sc3nc(-c4cc[n+](C)cc4)cs3)CS[C@H]12)c1nsc(NP(=O)(O)O)n1.[Na+]` had a half-life of 1.6 h.

As to `CC1(C)S[C@@H]2[C@H](NC(=O)[C@H](N)c3ccc(O)cc3)C(=O)N2[C@H]1C(=O)O` [AMOXICILLIN], in [2], the fraction unbound is 0.7.

For `C[C@H]1[C@H](NC(=O)/C(=N\OC(C)(C)C(=O)O)c2csc(N)n2)C(=O)N1S(=O)(=O)O` [AZTREONAM], the bioavailability in data set [3] amounted to 1%; in [4] it was 100%. Besides, in data set [5], the dose excreted was 68%.

In the case of `CC1(C)S[C@@H]2[C@H](NC(=O)C(C(=O)O)c3ccccc3)C(=O)N2[C@H]1C(=O)O` (some centres not stated) [CARBENICILLIN], the half-life in [6] was 1 h.

With `Cc1onc(-c2ccccc2Cl)c1C(=O)N[C@@H]1C(=O)N2[C@@H]1SC(C)(C)[C@@H]2C(=O)O` [CLOXACILLIN], the fraction unbound in data set [2] is 0.1.

Turning to `C[C@@H](O)[C@H]1C(=O)N2C(C(=O)O)=C(S[C@@H]3CN[C@H](C(=O)N(C)C)C3)[C@H](C)[C@H]12` [MEROPENEM], the half-life in data set [7] was 1 h. Moreover, the degraded at 24 h in [8] stood at 60%.

Consider `Cc1onc(-c2ccccc2)c1C(=O)N[C@@H]1C(=O)N2[C@@H]1SC(C)(C)[C@@H]2C(=O)O` [OXACILLIN], for which the fraction unbound in [2] is 0.1.

The compound `CC1(C)S[C@@H]2[C@H](NC(=O)Cc3ccccc3)C(=O)N2[C@H]1C(=O)O` [PENICILLIN G] had a half-life in data set [9] of 0.333 h. For the same compound, the fraction unbound in data set [2] is 0.4.
